Results reported in patent US6406680B1, “X-ray contrast agents” (Nycomed Imaging AS, priority 1999, dated 2002).
Converted amounts (≈) assume the structure as drawn.

Assays:
[1] = Aqueous solubility at 20° C.; format: physicochemical; conditions: water
mice = conditions: cited from earlier work

SMILES	solubility [1]	solubility ([1]; Table 1)	toxicity (LD 50 in mice, intravenous) (mice)
OCC(I)=CI [Compound 2, 2,3-Diiodo-2-propene-1-ol]	3.91 mg/mL (≈ 12.6 mM)	0.391 mg/mL (≈ 1.26 mM)	–
OCC(I)=C(I)I [Compound 3, 2,3,3-Triiodo-2-propene-1-ol]	0.198 mg/mL (≈ 0.454 mM)	0.198 mg/mL (≈ 0.454 mM)	–
OCC(O)COCC(I)=CI (centres unmarked) [Compound 5, 3-(2,3-Diiodo-2-propenyloxy)-propane-1,2-diol]	18.4 mg/mL (≈ 47.9 mM)	18.4 mg/mL (≈ 47.9 mM)	–
OCC(O)COCC(I)=C(I)I (centres unmarked) [Compound 6, 3-(2,3,3-Triiodo-2-propenyloxy)-propane-1,2-diol]	0.5 mg/mL (≈ 0.981 mM)	0.5 mg/mL (≈ 0.981 mM)	–
OCCOCC(I)=C(I)COCCO [Compound 9, 2,2′-[2,3-Diiodo-2-butene-1,4-diylbis(oxy)]-bis-ethanol]	7.2 mg/mL (≈ 16.8 mM)	7.2 mg/mL (≈ 16.8 mM)	–
OCC(I)=C(I)CO [Compound 12, 2,3-Diiodo-2-butene-1,4-diol]	0.534 mg/mL (≈ 1.57 mM)	0.534 mg/mL (≈ 1.57 mM)	–
CC(=O)N(CC(O)CO)c1c(I)c(C(=O)NCC(O)CO)c(I)c(C(=O)NCC(O)CO)c1I (centres unmarked) [Iohexol, iohexol, reference compound]	–	> 1200 mg/mL	33700 mg/kg

Now from value to compound, other results behind:

solubility [1]	solubility ([1]; Table 1)	SMILES	toxicity (LD 50 in mice, intravenous) (mice)
> 1.2 mg/mL	> 1200 mg/mL	OCC(I)=C(I)COCC(O)CO (centres unmarked) [Compound 13, 3-[(2,3-Diiodo-4-hydroxy-2-butenyl)oxy]-propane-1,2-diol]	–
> 1.2 mg/mL	> 1200 mg/mL	OCC(O)COCC(I)=C(I)COCC(O)CO (centres unmarked) [Compound 14, 3,3′-[2,3-Diiodo-2-butene-1,4-diylbis(oxy)]-bis-propane-1,2-diol]	–
0.183 mg/mL (≈ 0.296 mM)	0.183 mg/mL (≈ 0.296 mM)	OCC(I)=C(I)C(I)=C(I)CO [Compound 16, 2,3,4,5-Tetraiodo-2,4-hexadiene-1,6-diol]	–
